The values below come from PMC11763590, “Fluorescence Polarization Immunoassay for Rapid, Sensitive Detection of the Herbicide 2,4-Dichlorophenoxyacetic Acid in Juice and Water Samples” (Biosensors, 2025).

The assay has as its target monoclonal antibody against 2,4-D (MAb). Put plainly: fluorescence polarization titration of tracer with antibody. Format: binding. For orientation: Fluorescence polarisation rises when a labelled molecule tumbles more slowly, as on binding a larger partner.

As a reminder, the Kd is the equilibrium constant for the complex coming apart. Read a high Kd as weaker binding.

Turning to `O=C(COc1ccc(Cl)cc1Cl)NCC(=O)Nc1ccc(-c2c3ccc(=O)cc-3oc3cc(O)ccc23)c(C(=O)O)c1` [2,4-D-GAF, 2,4-D-glycine aminofluorescein], binding was put at a Kd of 3.7 ± 0.6 nM. `O=C(COc1ccc(Cl)cc1Cl)NCCCCNC(=S)Nc1ccc(-c2c3ccc(=O)cc-3oc3cc(O)ccc23)c(C(=O)O)c1` [2,4-D-BDF, 2,4-D-buthylenediamin fluoresceinthiocarbamyl] displayed a Kd of 3.2 ± 0.5 nM.
